Experimental data as given in patent US8426420B2, “Heterocyclic pyrazole-carboxamidesas P2Y12 antagonists” (Sanofi, priority 2007, dated 2013).

Biological target: human P2Y12 receptor (Homo sapiens, UniProt Q9H244)
Assay: Human P2Y12 recombinant cell membrane binding assay with 33P 2MeS-ADP
Conditions: competition against 33P 2MeS-ADP, membranes of CHO cells with recombinant human P2Y12 receptor
Procedure: The ability of the compounds of the formula Ito inhibit the P2Y12 receptor can be assessed by determining the concentration of the compound of the formula I that binds to the human P2Y12 Recombinant Cell Membrane Binding Assay with 33P 2MeS-ADP.
Human P2Y12 Recombinant Cell Membrane Binding Assay
The ability of a test compound to bind to the P2Y12 receptor was evaluated in a recombinant cell membrane binding assay. In this competitive binding assay, the test compound competed against a radiolabeled agonist for binding to the P2Y12 receptor, expressed on the cell membrane. Inhibition of binding of the labeled material was measured and correlated to the amount and potency of the test compound. This binding assay is a modification of the procedure described by Takasaki, J. et. al, Mol. Pharmacol., 2001, Vol. 60, pg. 432. A membrane preparation was prepared from Chinese Hamster Ovary (CHO) cells with recombinant expression of the human P2Y12 receptor according to standard procedures as a source of P2Y12.
To a 96-well microtiterplate the following were added: a) 24 μl of assay buffer (10 mM HEPES, 138 mM NaCl, […] KCl, 12 mM NaHCO3, 1 mM EDTA-Na, 0.1% BSA, pH 7.4) b) 1 μL compound in DMSO c) 50 μL P2Y12 CHO membrane (20 μg/ml) and after 15 min at RT d) 25 μL of 1.61 nM 33P 2MeS-ADP (Perkin Elmer NEN custom synthesis, specific activity ˜2100 Ci/mmol) made in assay buffer.
After 20 min incubation at RT samples were transferred to 96-well microtiter filterplates (Millipore HTS GF/B), pre-wetted for 20 min with 300 μL of stop buffer (10 mM HEPES, 138 mM NaCl pH 7.4) and then filtered through completely with a Millipore plate vacuum. Next, wells were washed four times with 400 μl/well of stop buffer on a plate vacuum. The plate was disassembled and allowed to air dry overnight with the filter side up over night. The filter plates were snapped into adapter plates and 0.1 mL of Microscint 20 Scintillation Fluid (Perkin Elmer #6013621) was added to each well. The top of the filterplate was sealed with plastic plate covers. The sealed filterplate were incubated 2 hours at RT. A Microbeta Scintillation Counter was used to measure counts.
Compounds were diluted as 10 mM DMSO stocks and tested in a four-point, five-fold dilution series run in triplicate beginning at 10 μM, final concentration. Data were analyzed using a four-parameter curve fit with a fixed minimum and maximum experimentally defined as the average positive and negative controls on each plate.

Sequence of human P2Y12 receptor (Q9H244 whole entry): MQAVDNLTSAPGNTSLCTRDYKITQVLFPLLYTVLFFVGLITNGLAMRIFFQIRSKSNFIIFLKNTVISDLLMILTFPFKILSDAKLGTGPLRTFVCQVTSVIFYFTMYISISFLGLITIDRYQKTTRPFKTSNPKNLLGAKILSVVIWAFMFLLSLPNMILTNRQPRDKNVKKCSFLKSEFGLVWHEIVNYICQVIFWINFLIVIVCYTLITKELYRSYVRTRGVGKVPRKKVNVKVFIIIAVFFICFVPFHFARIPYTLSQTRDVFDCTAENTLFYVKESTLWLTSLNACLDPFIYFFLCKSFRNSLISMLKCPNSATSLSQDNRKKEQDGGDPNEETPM

SMILES	IC50 [nM]
CCOC(=O)N1CCN(C(=O)[C@H](CCC(=O)OC2CCCCC2)NC(=O)c2cc(OCC(=O)N3CCC[C@H]3C(=O)NC3CCC3)n(-c3ccccc3)n2)CC1 [Example 129, 4-[(S)-2-({5-[2-((S)-2-Cyclobutylcarbamoyl-pyrrolidin-1-yl)-2-oxo-ethoxy]-1-phenyl-1H-pyrazole-3-carbonyl}-amino)-4-cyclohexyloxycarbonyl-butyryl]-piperazine-1-carboxylic acid ethyl ester]	83
CCOC(=O)N1CCN(C(=O)[C@H](CNC(=O)C2CC2)NC(=O)c2cc(OCC(=O)N3CCC[C@H]3C(=O)NC3CCC3)n(-c3ccccc3)n2)CC1 [Example 91, 4-[(S)-2-({5-[2-((S)-2-Cyclobutylcarbamoyl-pyrrolidin-1-yl)-2-oxo-ethoxy]-1-phenyl-1H-pyrazole-3-carbonyl}-amino)-3-(cyclopropanecarbonyl-amino)-propionyl]-piperazine-1-carboxylic acid ethyl ester]	130
CCOC(=O)N1CCN(C(=O)[C@H](CCC(=O)OCc2ccccc2)NC(=O)c2cc(OCC(=O)N3CCC[C@H]3C(=O)NC3CCC3)n(-c3ccccc3)n2)CC1 [Example 132, 4-[(S)-2-({5-[2-((S)-2-Cyclobutylcarbamoyl-pyrrolidin-1-yl)-2-oxo-ethoxy]-1-phenyl-1H-pyrazole-3-carbonyl}-amino)-4-benzyloxycarbonyl-butyryl]-piperazine-1-carboxylic acid ethyl ester]	25
CCOC(=O)N1CCN(C(=O)[C@H](CNS(C)(=O)=O)NC(=O)c2cc(OCC(=O)N3CCC[C@H]3C(=O)NC3CCC3)n(-c3ccccc3)n2)CC1 [Example 88, 4-[(S)-2-({5-[2-((S)-2-Cyclobutylcarbamoyl-pyrrolidin-1-yl)-2-oxo-ethoxy]-1-phenyl-1H-pyrazole-3-carbonyl}-amino)-3-methanesulfonylamino-propionyl]-piperazine-1-carboxylic acid ethyl ester]	125
CCOC(=O)N1CCN(C(=O)[C@H](CC(=O)O)NC(=O)c2cc(OCC(=O)N3CCC[C@H]3C(=O)NCC(F)F)n(-c3ccccc3)n2)CC1 [Example 57, 4-{(S)-3-Carboxy-2-[(5-{2-[(S)-2-(2,2-difluoro-ethylcarbamoyl)-pyrrolidin-1-yl]-2-oxo-ethoxy}-1-phenyl-1H-pyrazole-3-carbonyl)-amino]-propionyl}-piperazine-1-carboxylic acid ethyl ester]	183
CCOC(=O)N1CCN(C(=O)[C@H](CCC(=O)O)NC(=O)c2cc(OCC(=O)N3CCC[C@H]3C(=O)NCC3CC3)n(-c3ccccc3)n2)[C@H](C)C1 [Example 152, (R)-4-[(S)-4-Carboxy-2-({5-[2-((S)-2-(cyclopropylmethyl-carbamoyl)-pyrrolidin-1-yl)-2-oxo-ethoxy]-1-phenyl-1H-pyrazole-3-carbonyl}-amino)-butyryl]-3-methyl-piperazine-1-carboxylic acid ethyl ester]	37
CCCCOC(=O)N1CCN(C(=O)[C@H](CC2CCCCC2)NC(=O)c2cc(OCC(=O)N3CCC[C@H]3C(=O)NC3CCC3)n(-c3ccccc3)n2)CC1 [Example 225, 4-[(S)-2-({5-[2-((S)-2-Cyclobutylcarbamoyl-pyrrolidin-1-yl)-2-oxo-ethoxy]-1-phenyl-1H-pyrazole-3-carbonyl}-amino)-3-cyclohexyl-propionyl]-piperazine-1-carboxylic acid butyl ester]	136
CCCCOC(=O)N1CCN(C(=O)[C@H](CC(C)C)NC(=O)c2cc(OCC(=O)N3CCC[C@H]3C(=O)NC3CCC3)n(-c3ccccc3)n2)CC1 [Example 226, 4-[(S)-2-({5-[2-((S)-2-Cyclobutylcarbamoyl-pyrrolidin-1-yl)-2-oxo-ethoxy]-1-phenyl-1H-pyrazole-3-carbonyl}-amino)-4-methyl-pentanoyl]-piperazine-1-carboxylic acid butyl ester]	59
CCOC(=O)N1CCN(C(=O)[C@H](CCNC(=O)C(C)(C)C)NC(=O)c2cc(OCC(=O)N3CCC[C@H]3C(=O)NC3CCC3)n(-c3ccccc3)n2)CC1 [Example 99, 4-[(S)-2-({5-[2-((S)-2-Cyclobutylcarbamoyl-pyrrolidin-1-yl)-2-oxo-ethoxy]-1-phenyl-1H-pyrazole-3-carbonyl}-amino)-4-(2,2-dimethyl-propionylamino)-butyryl]-piperazine-1-carboxylic acid ethyl ester]	158
CCOC(=O)C(=O)NC[C@H](NC(=O)c1cc(OCC(=O)N2CCC[C@H]2C(=O)NC2CCC2)n(-c2ccccc2)n1)C(=O)N1CCN(C(=O)OCC)CC1 [Example 90, 4-[(S)-2-({5-[2-((S)-2-Cyclobutylcarbamoyl-pyrrolidin-1-yl)-2-oxo-ethoxy]-1-phenyl-1H-pyrazole-3-carbonyl}-amino)-3-(ethoxyoxalyl-amino)-propionyl]-piperazine-1-carboxylic acid ethyl ester]	35
CCCCOC(=O)N1CCN(C(=O)[C@H](CCCCOCc2ccccc2)NC(=O)c2cc(OCC(=O)N3CCC[C@H]3C(=O)NC3CCC3)n(-c3ccccc3)n2)CC1 [Example 196, 4-[(S)-6-Benzyloxy-2-({5-[2-((S)-2-cyclobutylcarbamoyl-pyrrolidin-1-yl)-2-oxo-ethoxy]-1-phenyl-1H-pyrazole-3-carbonyl}-amino)-hexanoyl]-piperazine-1-carboxylic acid butyl ester]	23
CCCCOC(=O)CC[C@H](NC(=O)c1cc(OCC(=O)N2CCC[C@H]2C(=O)NC2CCC2)n(-c2ccccc2)n1)C(=O)N1CCN(C(=O)OCC)CC1 [Example 134, 4-[(S)-2-({5-[2-((S)-2-Cyclobutylcarbamoyl-pyrrolidin-1-yl)-2-oxo-ethoxy]-1-phenyl-1H-pyrazole-3-carbonyl}-amino)-4-butoxycarbonyl-butyryl]-piperazine-1-carboxylic acid ethyl ester]	42
CCOC(=O)N1CCN(C(=O)[C@H](CCC(=O)O)NC(=O)c2cc(OCC(=O)N3CCCC3c3cccs3)n(-c3ccccc3)n2)CC1 (stereo partly drawn) [Example 167, 4-[(S)-4-Carboxy-2-({5-[2-oxo-2-(2-thiophen-2-yl-pyrrolidin-1-yl)-ethoxy]-1-phenyl-1H-pyrazole-3-carbonyl}-amino)-butyryl]-piperazine-1-carboxylic acid ethyl ester]	146
CCCCOC(=O)N1CCN(C(=O)[C@H](CC(F)(F)F)NC(=O)c2cc(OCC(=O)N3CCC[C@H]3C(=O)NC3CCC3)n(-c3ccccc3)n2)CC1 [Example 274, 4-[(S)-2-({5-[2-((S)-2-Cyclobutylcarbamoyl-pyrrolidin-1-yl)-2-oxo-ethoxy]-1-phenyl-1H-pyrazole-3-carbonyl}-amino)-4,4,4-trifluoro-butyryl]-piperazine-1-carboxylic acid butyl ester]	36
O=C(N[C@@H](CCCCOCc1ccccc1)C(=O)N1CCN(C(=O)OC2CCC2)CC1)c1cc(OCC(=O)N2CCC[C@H]2C(=O)NC2CCC2)n(-c2ccccc2)n1 [Example 197, 4-[(S)-6-Benzyloxy-2-({5-[2-((S)-2-cyclobutylcarbamoyl-pyrrolidin-1-yl)-2-oxo-ethoxy]-1-phenyl-1H-pyrazole-3-carbonyl}-amino)-hexanoyl]-piperazine-1-carboxylic acid cyclobutyl ester]	99
CCOC(=O)N1CCN(C(=O)[C@H](CCC(=O)O)NC(=O)c2cc(OCC(=O)N3CCC[C@H]3C(=O)NCCF)n(-c3ccccc3)n2)[C@H](C)C1 [Example 151, (R)-4-[(S)-4-Carboxy-2-({5-[2-((S)-2-(2-fluoroethyl-carbamoyl)-pyrrolidin-1-yl)-2-oxo-ethoxy]-1-phenyl-1H-pyrazole-3-carbonyl}-amino)-butyryl]-3-methyl-piperazine-1-carboxylic acid ethyl ester]	166
CCOC(=O)N1CCN(C(=O)[C@H](CCC(=O)OC(C)C)NC(=O)c2cc(OCC(=O)N3CCC[C@H]3C(=O)NC3CCC3)n(-c3ccccc3)n2)CC1 [Example 137, 4-[(S)-2-({5-[2-((S)-2-Cyclobutylcarbamoyl-pyrrolidin-1-yl)-2-oxo-ethoxy]-1-phenyl-1H-pyrazole-3-carbonyl}-amino)-4-isopropoxycarbonyl-butyryl]-piperazine-1-carboxylic acid ethyl ester]	148
CCCCOC(=O)N1CCN(C(=O)[C@H](CC2CC2)NC(=O)c2cc(OCC(=O)N3CCC[C@H]3C(=O)NC3CCC3)n(-c3ccccc3)n2)CC1 [Example 234, 4-[(S)-2-({5-[2-((S)-2-Cyclobutylcarbamoyl-pyrrolidin-1-yl)-2-oxo-ethoxy]-1-phenyl-1H-pyrazole-3-carbonyl}-amino)-3-cyclopropyl-propionyl]-piperazine-1-carboxylic acid butyl ester]	85
